{"source": "patent US4973578A", "about": "“Synthetic peptides derived from the alpha-subunit of human lycoprotein hormones” (Mayo Foundation for Medical Education and Research, priority 1988, dated 1990)", "key": {"[1]": {"experiment": "Solubility of peptide in assay buffers", "type": "physicochemical"}, "[2]": {"system": "TSH mediated cAMP generation in FRTL-5 cells", "experiment": "Inhibition of TSH mediated cAMP generation in FRTL-5 cells", "type": "cell-based, rat", "details": "for percent inhibition of TSH mediated cAMP generation: 200 mU/L bTSH, 2 hrs 37° C.", "procedure": "FRTL-5 cells were maintained in Ham's F-12 medium supplemented with 5% calf serum and a 6 hormone preparation including 10 mU/ml bTSH as described by Ambesi-Impiombato et al., Proc. Natl. Acad. Sci. U.S.A., 77:3455 (1980), the disclosure of which is incorporated herein. For all assays herein described, the cells were plated in 24 well plates and grown for 3 days at 37° C. then maintained for 5-7 days in medium supplemented with 10 ug insulin alone prior to assay.\nThe bioassay was a modification of those previously described by Bidey et al, J. Endocrinol., 101:269 (1984); and Kasagi et al., ACTA Endocrinol., 115:30 (1987). To duplicate culture wells were added varying concentrations of test materials (see below) in a final volume of 300 ul of NaCl free HBSS with 0.5 mM iso-butyl-methyl-xanthine (IBMX, Sigma, St. Louis). In stimulation assays, only synthetic α-subunit peptides were added to the incubation medium. For inhibition assays, the noted concentrations of synthetic α-subunit peptides were added immediately prior to the addition of 200 mU/L bTSH. The plates were incubated at 37° C. in 5% CO2 for 2 hrs then 100 ul of incubation medium was removed and diluted in 900 ul of 0.05M sodium acetate pH 6.2 and assayed for cAMP content by RIA in accordance with procedures described by Wray and Glinos, Am. J. Physiol., 234 (Cell Phisol. 3):C131(1978)); and Steiner et al., J. Biol. Chem., 247:1106 (1972). […] Basal cAMP levels were determined in the presence of HBSS and IBMX alone. In inhibition assays percent inhibition was calculated as follows: [formula]\nFIG. 4 reports data obtained for TSH deprived FRTL-5 cells incubated with a fixed amount of bTSH (200 mU/l) by itself or with various concentrations of synthetic peptides. cAMP content of medium was measured after 2 hrs. incubation at 37° C. Percent inhibition of cAMP generation was calculated as noted above."}, "[3]": {"target": "T1, TSH receptor on human thyroid membranes (Homo sapiens, UniProt P16473)", "T1 construct": "Thyroid tissue obtained at surgery from patients with Graves' disease was prepared as described by Takahashi et al; from tissue; host or cells: human thyroid tissue from Graves' disease patients, 2000xg membrane fraction", "T1 sequence (P16473 21-764)": "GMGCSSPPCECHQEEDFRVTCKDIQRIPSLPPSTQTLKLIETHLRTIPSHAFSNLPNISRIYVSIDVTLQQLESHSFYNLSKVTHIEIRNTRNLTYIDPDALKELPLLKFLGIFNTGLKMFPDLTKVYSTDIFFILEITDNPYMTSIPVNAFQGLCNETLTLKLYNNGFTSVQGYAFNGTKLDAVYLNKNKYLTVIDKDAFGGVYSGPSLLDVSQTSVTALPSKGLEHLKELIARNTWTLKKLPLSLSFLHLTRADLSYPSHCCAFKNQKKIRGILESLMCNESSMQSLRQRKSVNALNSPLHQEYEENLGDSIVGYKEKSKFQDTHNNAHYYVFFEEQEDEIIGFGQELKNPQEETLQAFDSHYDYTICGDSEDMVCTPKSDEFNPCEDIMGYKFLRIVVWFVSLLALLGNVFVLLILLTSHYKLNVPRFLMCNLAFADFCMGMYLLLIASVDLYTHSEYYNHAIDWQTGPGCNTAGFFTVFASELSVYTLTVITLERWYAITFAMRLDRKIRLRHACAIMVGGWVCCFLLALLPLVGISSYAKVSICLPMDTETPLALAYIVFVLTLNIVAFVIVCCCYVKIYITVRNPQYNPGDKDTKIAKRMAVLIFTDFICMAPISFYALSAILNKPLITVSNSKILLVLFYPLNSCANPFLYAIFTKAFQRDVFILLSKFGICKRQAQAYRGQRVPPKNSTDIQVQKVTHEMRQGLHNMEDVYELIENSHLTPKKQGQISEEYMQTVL", "experiment": "TSH radioreceptor assay: inhibition of 125I-bTSH binding to human thyroid membrane preparations", "details": "for IC50: human thyroid membrane homogenates, ± S.E., read-out: bTSH ED50 (effective dose necessary to inhibit binding of 125I-bTSH by 50%); for inhibition of 125I-bTSH binding, result in words: human thyroid membranes", "procedure": "Thyroid tissue obtained at surgery from patients with Graves' disease was prepared as described by Takahashi et al., J. Clin. Endocrinol. Metab. 47:870 (1978), the disclosure of which is incorporated herein. Briefly, the tissue was dissected free of fibrous material, minced with scissors, and homogenized with Polytron homogenizer. The 2000×g fraction was collected by centrifugation, washed and resuspended in 40 mM Tris, 0.1% Bovine Serum Albumin (BSA) pH 7.4 at a concentration of 100 mg equivalents of wet tissue per milliliter. The preparation was stored at -70° C. until used for assay.\nHighly purified bovine TSH (30 IU/mg, supplied by Dr. J. G. Pierce, UCLA) was radio-iodinated (Na^125 I, Amersham, Chicago) by a gentle lactoperoxidase procedure described by Takahashi et al., supra, then purified by Sephadex G-100 chromatography.\nThe membrane assay incubation mixture consisted of […] of the 2000×g membrane fraction, 0.125 ng ^125 I bTSH (approximately 20,000 cpm, 5×10^-12 M), 100 ul of 1% Triton X-100 and noted amounts of test materials in a final volume of 0.5 ml of 40 mM Tris-HCl pH 7.4 plus 0.1% BSA. Nonspecific binding was determined by addition of excess unlabeled bTSH (200 mU/ml, Sigma, St. Louis). After 2 hrs incubation at 25° C., 200 ul of 5 mg/ml bovine gamma globulin and 1 ml 30% polyethylene glycol 6000 (Baker, Phillipsburg, N.J.) in 1M NaCl was added to each tube and the tubes centrifuged at 4000 rpm for 25 minutes. The supernatants were aspirated and pellets counted in a gamma counter. Specific binding averaged 25% of total counts.\nFIG. 1 reports 5×10^-12 M labeled bTSH incubated with 10 mg equivalents (wet weight) of 2000×g fraction of thyroid membranes with varying concentrations of unlabeled TSH or synthetic α-subunit peptides. Nonspecific binding was determined in the presence of excess unlabeled TSH."}, "[4]": {"system": "thyroid stimulating immunoglobulin (TSI) stimulated cAMP in FRTL-5 cells", "experiment": "TSI bioassay: inhibition of thyroid stimulating immunoglobulin activity (PEG-precipitated patient immunoglobulin) in FRTL-5 cells", "type": "cell-based, rat", "details": "for Percent inhibition of TSI activity, mean: mean of patient samples tested", "excerpt": "Ten patients (8 women and 2 men) with Graves' disease and high levels of TSI were identified after evaluation by FRTL-5 cell bioassay in the clinical chemistry laboratory. (FRTL-5 bioassay described below employing known TSH receptor recognition of various species hormones) Consecutive samples that had indices greater than 15 and sufficient serum remaining for further evaluation were chosen. Seven of the 10 had serum thyroxine values above the normal range and 9 of 10 had TSH levels below the euthyroid range by sensitive immunoradiometric assay [Boots-Celltech Sucrosep, Berkshire, UK, conducted as described in Klee and Hay, J. Clin. Endocrinol. Metab., 64:461 (1987)]. (FIG. 5). For comparison serum from 13 normal subjects was examined for TSI at the same serum dilution as the patient sera. (FIG. 5).\nFRTL-5 cells were maintained in Ham's F-12 medium supplemented with 5% calf serum and a 6-hormone preparation (6H) as described by Ambesi-Impiombato, supra. The cells were removed from flasks enzymatically, plated at 150,000 cells per well in 24 well plates, and grown in 6H medium for 4 days. The medium was then replaced with fresh medium supplemented with insulin only (1H) for 7 days prior to assay. The bioassay was a modification of that described by Kasagi et al., supra. Briefly, immunoglobulins were precipitated from 2 ml of serum with 6 ml 20% polyethylene glycol 6000 (Baker, Phillipsburg, N.J.), centrifuged at 2800×g for 20 minutes, and then reconstituted in 2.4 ml buffer (NaCl-free Hanks balanced salt solution, NaCl-free HBSS), containing 1 mM iso-butyl-methyl-xanthine (IBMX, Sigma, St. Louis) and 1.5% BSA. After washing the cells with HBSS, 150 ul of buffer was added to the wells plus varying concentrations of synthetic α-subunit peptides followed immediately by 150 ul of the crude immunoglobulin extract. The plates were incubated for 2 hours at 37° C., 5% CO2 after which 100 ul of medium was removed and diluted in 900 ul 50 mM sodium acetate buffer, pH 6.2. cAMP content was determined by radioimmunoassay using the procedures described in Wray and Glinos, supra and Steiner et al., supra. Basal cAMP levels were determined in the absence of immunoglobulin extract and synthetic peptides for each plate. Basal and maximum levels were determined in quadruplicate; peptide effects were measured in duplicate at each concentration.\nPercent increase in cAMP levels over basal was calculated as below: [formula]\nPercent inhibition of TSI activity by the synthetic α-subunit peptides was calculated as follows: [formula]\ncAMP levels in the presence of synthetic peptides were compared to maximum levels using student's T test for paired samples. Mean percent inhibition between different peptides were compared with student's T test for independent samples. Correlations were determined by Pearson's R."}}, "note": "Values joined by “and” are separate entries in the source; they are usually repeats but may differ in a detail not shown here. Equal values may be shown once. “Also recorded” adds a separate entry of the source. Residues, ends and D or L forms follow the SMILES beside them.", "data": [{"smiles": "CC[C@H](C)[C@H](NC(=O)[C@@H]1CCCN1C(=O)[C@H](C)NC(=O)CNC(=O)[C@@H]1CCCN1)C(=O)N[C@@H](CC(C)C)C(=O)N[C@@H](CCC(N)=O)C(=O)N[C@@H](CS)C(=O)N[C@@H](CCSC)C(=O)NCC(=O)N[C@@H](CS)C(=O)N[C@@H](CS)C(=O)N[C@@H](Cc1ccccc1)C(=O)N[C@@H](CO)C(=O)N[C@@H](CCCNC(=N)N)C(N)=O", "note": "[α21-35, Pro--Gly--Ala--Pro--Ile--Leu--Gln--Cys--Met--Gly--Cys--Cys--Phe--Ser--Arg] (H-PGAPILQCMGCCFSR-NH2)", "values": [{"measurement": "behaviour in cell binding assay buffer", "setting": "[1]; FRTL-5 cell binding assay buffer", "value": "precipitated in the assay buffer"}, {"measurement": "behaviour in soluble membrane assay", "setting": "[1]; soluble membrane assay (FIG. 1)", "value": "remained in solution"}, {"measurement": "percent inhibition of TSH mediated cAMP generation", "setting": "[2]; peptide 66.7 ug/ml", "value": 33.88, "unit": "%"}, {"measurement": "percent inhibition of TSH mediated cAMP generation", "setting": "[2]; peptide 133.3 ug/ml", "value": 52.50, "unit": "%"}, {"measurement": "displacement of 125I-bTSH label", "setting": "[3]; at concentrations greater than 1×10^-5 m, FIG. 1", "value": "more than 80%"}, {"measurement": "IC50", "setting": "[3]", "value": "39.9 ± 0.4", "unit": "µM"}, {"measurement": "inhibition of 125I-bTSH binding, result in words", "setting": "[3]; FIG. 1", "value": "dose dependent inhibition"}]}, {"smiles": "C[C@H](N)C(=O)N[C@@H](CS)C(=O)N[C@@H](Cc1c[nH]cn1)C(=O)N[C@@H](CS)C(=O)N[C@@H](CO)C(=O)N[C@H](C(=O)N[C@@H](CS)C(=O)N[C@@H](Cc1ccc(O)cc1)C(=O)N[C@@H](Cc1ccc(O)cc1)C(=O)N[C@@H](Cc1c[nH]cn1)C(=O)N[C@@H](CCCCN)C(=O)N[C@@H](CO)C(=O)O)[C@@H](C)O", "note": "[α81-92, Ala--Cys--His--Cys--Ser--Thr--Cys--Tyr--Tyr--His--Lys--Ser(OH)] (H-ACHCSTCYYHKS-OH)", "values": [{"measurement": "percent inhibition of TSH mediated cAMP generation", "setting": "[2]; peptide 66.7 ug/ml", "value": 18.03, "unit": "%"}, {"measurement": "percent inhibition of TSH mediated cAMP generation", "setting": "[2]; peptide 133.3 ug/ml", "value": 20.83, "unit": "%"}, {"measurement": "inhibition of TSH mediated cAMP generation, in words", "setting": "[2]; same concentrations as the active peptides", "value": "did not significantly inhibit TSH stimulation of cAMP production; also recorded: little or no ability to inhibit TSH mediated cAMP generation"}, {"measurement": "IC50", "setting": "[3]", "value": "175 ± 3.8", "unit": "µM"}, {"measurement": "inhibition of 125I-bTSH binding, result in words", "setting": "[3]; FIG. 1", "value": "dose dependent inhibition; also recorded: considerably less potent"}, {"measurement": "inhibition of cAMP generated by patient immunoglobulin, in words", "setting": "[4]; FIG. 7 and Table 6", "value": "did not significantly inhibit"}, {"measurement": "Percent inhibition of TSI activity", "setting": "[4]; Pt. sample D, peptide 66.7 ug/ml", "value": -18.5, "unit": "%"}, {"measurement": "Percent inhibition of TSI activity", "setting": "[4]; Pt. sample D, peptide 133 ug/ml", "value": -7.8, "unit": "%"}, {"measurement": "Percent inhibition of TSI activity", "setting": "[4]; Pt. sample E, peptide 66.7 ug/ml", "value": 29.7, "unit": "%"}, {"measurement": "Percent inhibition of TSI activity", "setting": "[4]; Pt. sample E, peptide 133 ug/ml", "value": 33.6, "unit": "%"}, {"measurement": "Percent inhibition of TSI activity", "setting": "[4]; Pt. sample F, peptide 66.7 ug/ml", "value": 9.6, "unit": "%"}, {"measurement": "Percent inhibition of TSI activity", "setting": "[4]; Pt. sample F, peptide 133 ug/ml", "value": -5.1, "unit": "%"}, {"measurement": "Percent inhibition of TSI activity", "setting": "[4]; Pt. sample G, peptide 66.7 ug/ml", "value": 19.0, "unit": "%"}, {"measurement": "Percent inhibition of TSI activity", "setting": "[4]; Pt. sample G, peptide 133 ug/ml", "value": 14.5, "unit": "%"}, {"measurement": "Percent inhibition of TSI activity", "setting": "[4]; Pt. sample H, peptide 66.7 ug/ml", "value": 0.6, "unit": "%"}, {"measurement": "Percent inhibition of TSI activity", "setting": "[4]; Pt. sample H, peptide 133 ug/ml", "value": -11.4, "unit": "%"}, {"measurement": "Percent inhibition of TSI activity", "setting": "[4]; Pt. sample I, peptide 66.7 ug/ml", "value": -13.3, "unit": "%"}, {"measurement": "Percent inhibition of TSI activity", "setting": "[4]; Pt. sample I, peptide 133 ug/ml", "value": -17.0, "unit": "%"}, {"measurement": "Percent inhibition of TSI activity", "setting": "[4]; Pt. sample J, peptide 66.7 ug/ml", "value": -2.0, "unit": "%"}, {"measurement": "Percent inhibition of TSI activity", "setting": "[4]; Pt. sample J, peptide 133 ug/ml", "value": -7.7, "unit": "%"}, {"measurement": "Percent inhibition of TSI activity, mean", "setting": "[4]; peptide 66.7 ug/ml", "value": 3.6, "unit": "%"}, {"measurement": "Percent inhibition of TSI activity, mean", "setting": "[4]; peptide 133 ug/ml", "value": "-0.1±6.2% and -0.1%"}, {"measurement": "patient Ig samples with statistically significant inhibition of cAMP", "setting": "[4]; peptide 133 ug/ml", "value": "none of the 7"}]}]}
